{
  "source": "patent US20250160329A1",
  "about": "“AGROCHEMICAL ADJUVANTS” (Croda International Pic, priority 2022, published 2025)",
  "test_system": "Botrytis cinerea (ATCC 90479)",
  "test": "Botrytis cinerea hyphal growth inhibition on PDA agar (colony diameter), adjuvant with or without pyraclostrobin",
  "format": "cell-based",
  "settings": "for Fold Change in Growth Inhibition: 48 h, 22° C., relative to pyraclostrobin alone",
  "excerpt": "As a measure of the adjuvant activity in relation to the activity of the fungicide alone (e.g. pyraclostrobin) to B. cinerea a value of percent inhibition (adjuvant and fungicide) divided by percent inhibition (fungicide) can be defined, with higher values desired. A value of 1 would therefore represent equal activity of the adjuvant/fungicide combination to the fungicide alone, whereas a value above 1 would represent higher activity with the adjuvant/fungicide combination than the fungicide alone. The actives of the present invention may have a value greater than 1. Preferably greater than 1.5, most preferably greater than 2.\nPercent Inhibition—The percent inhibition will be understood to represent the amount the fungicide and/or adjuvant that inhibits the visible growth of the microorganism after 48 hours incubation at 22° C. relative to vehicle treated controls. This is calculated using the following formula:\n[formula] • where: • ØC=diameter of the colony grown on agar supplemented with vehicle (i.e. vehicle treated control), and • ØT=diameter of the colony grown on agar supplemented with fungicide and/or adjuvant formulated in an appropriate vehicle (i.e. solvent such as water C2H5OH, CH3OH, CH3CN, DMSO).\nFold Change—The fold change is a measure of the adjuvant/fungicide combination in inhibiting a microorganism compared to the fungicide alone. This indicates how the adjuvant performs relative to the fungicide alone. This is calculated using the following formula:\nINHAF/INHF • where: • INHAF=percent inhibition of fungal growth when treated with fungicide and adjuvant, and • INHF=percent inhibition of fungal growth when treated with fungicide alone.\nBotrytis cinerea (ATCC 90479) was cultured on Difco Potato Dextrose Agar (PDA) for 7 days with diurnal UV cycles (12 h UV light and 12 h dark). Spores were harvested in a buffered, sterile saline solution (w/v: 0.9% NaCl with 1% Tween 80) and counted using a haemocytometer. The spore suspension was adjusted to a final concentration of 8.5×10^6 spores/mL to create a standardised inoculum.\nTo prepare hyphal fragments for adjuvant testing, 8.5×10^4 spores were used to inoculate 10 mL of Difco Potato Dextrose Broth in a 150×25 mm tube. The tube was incubated at 220 RPM, 22° C. for 48 hours.\nTo create hyphal fragments from the culture, the culture was transferred to a 50 mL plastic conical tube containing approximately 20 sterile 5 mm diameter glass beads and vortexed for 5 min. […]\nFungicides and adjuvants were dissolved in methanol and added to molten PDA (−50° C.) and then the agar was distributed in the wells of 12 well multiwell plates (1 mL/well). […] The plates were incubated at 22° C. for 48 hours and then the colony diameter was measured using a digital caliper. […]",
  "data": [
    {"compound": "O=C1N/C(=C\\c2ccccc2)C(=O)N2CCCCC12", "note": "(stereo not shown) [DKP (Ia), cyclo(-dhPhe-Pip) diketopiperazine]", "values": [
      {"measurement": "Fold Change in Growth Inhibition", "setting": "adjuvant 32 μg/mL + pyraclostrobin (Pyra) 0.0156 μg/mL", "result": 3.18},
      {"measurement": "Fold Change in Growth Inhibition", "setting": "adjuvant 32 μg/mL + pyraclostrobin (Pyra) 0.0313 μg/mL", "result": 1.36},
      {"measurement": "Fold Change in Growth Inhibition", "setting": "adjuvant 32 μg/mL + pyraclostrobin (Pyra) 0.0625 μg/mL", "result": 1.76},
      {"measurement": "fungicidal activity against B. cinerea (adjuvant alone)", "setting": "adjuvant alone at […] (so in the source), no fungicide", "result": "no fungicidal activity"}
    ]}
  ]
}
